From US6087358A (priority 1997, dated 2000)
Converted amounts (≈) assume the structure as drawn. Where two headings read alike, the source gives them in different places.

Columns and labels:
[1] = system: Mycobacterium bovis BCG (recombinant strain); test: microbe, parasite or virus in culture; assay type: cell-based; conditions: Mycobacterium tuberculosis variant bovis BCG, BCG, 144 h; 6 days 37° C.; read-out: MIC, column A, 3(S) compounds
[2] = system: Mycobacterium tuberculosis H37Rv (sensitive strain); test: MIC as determined by the BACTEC method, sensitive strain; assay type: cell-based; conditions: M. tuberculosis H37Rv (sensitive strain), read-out: MIC, column B, 3(S) compounds
[3] = system: Mycobacterium bovis (rBCG); assay type: in vivo; conditions: 10 days
[4] = system: Clostridium difficile ATCC 17857; test: In vitro inhibition of Clostridium difficile (Oxyrase broth microdilution MIC); assay type: cell-based; conditions: Clostridioides difficile, ATCC17857; Clostridium difficile ATCC 17857, Oxyrase broth; read-out: MIC, column D, 3(S) compounds
[5] = system: Mycobacterium tuberculosis; conditions: Ashtekar et al. 1993; cited from earlier work
Helicobacter felis = test: In vivo activity against Helicobacter felis in mice (urease test of stomach biopsy); parameters: species or system in female CD-1 mice; conditions: 50 mg/kg three times daily oral gavage, CM-2, four days; vehicle and untreated 100
Protocol: Female CD-1 mice weighing 30 grams were infected by oral gavage with 10^8 -10^9 colony forming units of H. felis. This infection process was repeated two, and four days, thereafter. Colonization of the stomach was allowed to occur over a seven day period. Animals were segregated into groups of five, and were treated three times daily by oral gavage with 50 mg/kg of test drugs prepared in the CM-2 formulation vehicle (Example 52). Treatment continued for four days. One group of animals received an equal volume of formulation vehicle alone, to ensure that the vehicle had no effect on the Helicobacter infection. A separate untreated control group was also included.
All animals were then sacrificed, the stomachs were removed, opened, and the contents washed out. A five millimeter diameter biopsy was removed, and transferred to a urease test solution containing a pH-sensitive dye, which was then incubated at 37° C. incubator for 24 hours. A blue or purple coloration in this test solution signifies a positive reaction, indicating the continued presence of viable Helicobacter bacteria; a negative result is indicated by a yellow coloration. Viable Helicobacter bacteria produce a urease enzyme which converts urea, of which there is an abundant supply in the stomach (from saliva and gastric juices), into bicarbonate and ammonia, which are strong bases. This mechanism is considered to provide conditions more amenable to the survival of Helicobacter in the otherwise acidic conditions prevalent in the stomach.

Helicobacter pylori = test: In vitro inhibition of Helicobacter pylori (broth microdilution MIC); conditions: Helicobacter pylori
[6] = system: Mycobacterium tuberculosis (rMTB); test: In vivo antimycobacterial activity against M. tuberculosis (rMTB) in lungs of mice; parameters: species or system Mycobacterium tuberculosis Erdman, in female BALB/c mice; conditions: 25 mg/kg daily oral gavage, CM-2, 10 days, control 117,258 (PA-824, 636, 1297) or 22,751 (others)
[7] = system: Mycobacterium tuberculosis (rMTB); test: In vivo antimycobacterial activity against M. tuberculosis (rMTB) in spleens of mice; parameters: species or system Mycobacterium tuberculosis Erdman, in female BALB/c mice; conditions: 25 mg/kg daily oral gavage, CM-2, 10 days, control 422,866 (PA-824, 636, 1297) or 362,274 (others)
[8] = system: Helicobacter pylori Strain 4187E; test: In vivo activity against Helicobacter pylori strain 4187E in mice; parameters: species or system in outbred female white mice; conditions: oral gavage, four days
Text: Outbred female white mice (20 grams) were infected by oral gavage with 10^7 -10^8 colony forming units of H. pylori strain 4187E (originally isolated from a patient with a duodenal ulcer). […] Treatment continued for four days. Clarithromycin, administered at the same concentration and for the same duration, was included as a positive control. One group of animals also received an equal volume of formulation vehicle alone, to provide a negative control.
Five days after cessation of treatment, all animals were sacrificed, the stomachs were removed, opened, and the contents washed out. The entire mucosal surface was then spread evenly over the surface of an agar plate containing antibiotics appropriate for the prevention of growth of microorganisms other than Helicobacter spp. After seven days incubation under microaeropilic conditions at 37° C., culture plates were evaluated for bacterial growth.

Cryptosporidium parvum = test: Inhibition of Cryptosporidium parvum (ELISA, infected HCT-8 monolayers); assay type: cell-based; conditions: Cryptosporidium parvum, HCT-8, 48 h, read-out: Percent Inhibition of C. parvum
Protocol: Susceptibility testing against Cryptosporidium was performed according to published procedures (K. Woods, M. Nesterenko, S. Upton, "Development of a microtiter ELISA to quantify development of Cryptosporidium parvum in vitro," FEMS Microbiology Letters, 128:89-94 (1995).
Compounds were solubilized to a concentration of 100 mg/mL in 100% DMSO. DMSO solutions of test compounds were added to the test wells of a microplate at a volume that produced a final concentration of DMSO of 0.2%. Monolayers of human ileocecal adenocarcinoma cells (HCT-8) were prepared by growth in RPMI 1640 medium in 96-Well tissue culture trays for 24 h. Oocysts of C. parvum were allowed to excyst in 10% bleach for 10 min prior to use. Monolayers were then infected with 2-3×10^4 oocysts/well and incubated in the presence or absence of compound for 48 h at 35° C. in 5% CO2 and 95% humidity. Background consisted of wells containing killed oocysts (freeze thaw cycle following 30 sec exposure to liquid nitrogen). Growth control wells were infected with 2-3×10^4 oocysts/well in the absence of test compounds. At the end of incubation, wells were washed and fixed by adding 100 uL of 4% formalin in phosphate buffered saline (pH 7.3) per well for 2 h. After blocking with 1% bovine serum albumin, and 0.002% Tween 20, 50 uL of rat anti-Cryptosporidium membrane protein antiserum was added. After 30 min, wells were washed in PBS and 50 uL of secondary antibody (goat anti-rat antibody conjugated with horseradish peroxidase) was added. After 20-30 min, wells were washed again in PBS and 50 uL of 3,3',5,5'-tetramethylbenzidine solution was added. Plates were allowed to develop for 10-15 min and the optical density was read at 630 nm. Percent inhibition was calculated by comparing the optical density of the drug treated group to that of the untreated control.

[9] = 72 h, read-out: MIC against Helicobacter pylori, strain 17 (Table 5A)
[10] = 72 h, read-out: MIC against Helicobacter pylori, strain 19 (Table 5A)
[11] = 72 h, read-out: MIC against Helicobacter pylori, strain 20 (Table 5A)
[12] = 72 h, read-out: MIC against Helicobacter pylori, strain 40 (Table 5A)
[13] = 72 h, read-out: MIC against Helicobacter pylori, strain 43 (Table 5A)
[14] = 72 h, read-out: MIC against Helicobacter pylori, strain 76 (Table 5A)
[15] = ATCC43504, 72 h, read-out: MIC against Helicobacter pylori, strain ATCC 43504 (Table 5A)

In the case of `CC(C)(C)c1ccc(CO[C@@H]2COc3nc([N+](=O)[O-])cn3C2)cc1` [PA-653], the MIC [1] is reported as 0.06 µg/mL (≈ 0.181 µM), the MIC [2] is reported as 0.03 µg/mL (≈ 0.0905 µM) and the “Average RLUs, M. bovis (rBCG) in spleens” value [3] is reported as 229,080 RLUs. The MIC [4] was 3.12 µg/mL (≈ 9.42 µM).
In the case of `CCC1Cn2cc([N+](=O)[O-])nc2O1` (stereo not shown) [CGI 17341, 2-ethyl-5-nitro-2,3-dihydro[2,1-b]imidazo-oxazole], the “activity against Mycobacterium tuberculosis” value [5] is given as “exhibit activity against Mycobacterium tuberculosis”.
With `O=[N+]([O-])c1cn2c(n1)OC[C@@H](OCc1ccc(OCc3ccccc3)cc1)C2` [PA-647] the MIC [1] was 0.03 µg/mL (≈ 0.0787 µM), the MIC [2] was 0.03 µg/mL (≈ 0.0787 µM) and the “Average RLUs, M. bovis (rBCG) in spleens” value [3] was 19,916 RLUs. The “% Survival” value (Helicobacter felis) was 100%, the MIC [4] was 12.5 µg/mL (≈ 32.8 µM) and the MIC (Helicobacter pylori; [9]) was over 25 µg/mL. For the same compound, the MIC (Helicobacter pylori; [10]) was 0.2 µg/mL (≈ 0.524 µM), the MIC (Helicobacter pylori; [11]) was 0.2 µg/mL (≈ 0.524 µM) and the MIC (Helicobacter pylori; [12]) was 0.4 µg/mL (≈ 1.05 µM). It also gave an MIC (Helicobacter pylori; [13]) of 0.4 µg/mL (≈ 1.05 µM), an MIC (Helicobacter pylori; [14]) of 3.12 µg/mL (≈ 8.18 µM) and an MIC (Helicobacter pylori; [15]) of over 25 µg/mL.
Compound `CC(C)=CCC/C(C)=C/CO[C@@H]1COc2nc([N+](=O)[O-])cn2C1` [PA-626] has an MIC [1] of 0.5 µg/mL (≈ 1.56 µM), an MIC [2] of 0.13 µg/mL (≈ 0.405 µM) and an MIC [4] of 0.8 µg/mL (≈ 2.49 µM).
With `O=C(Nc1ccc(OC(F)(F)F)cc1)O[C@@H]1COc2nc([N+](=O)[O-])cn2C1` [PA-1297, 4-(Trifluoromethoxy)phenyl Carbamate of 3S Hydroxy-6-nitro-2H-3,4-dihydo-[2-1b]imidazopyran] the MIC [1] was 0.015 µg/mL (≈ 0.0386 µM), the “% Survival” value (Helicobacter felis) was 100% and the “Average RLUs, M. tuberculosis (rMTB) in lungs” value (from here on “Average RLUs … in lungs”) [6] was 3,354 RLUs. For the same compound, the MIC [4] was 0.78 µg/mL (≈ 2.01 µM), the “Average RLUs, M. tuberculosis (rMTB) in spleens” value (“Average RLUs … (rMTB) in spleens” below) [7] was 66,473 RLUs and the “% Eradication” value ([8]; once daily 25 mg/kg) was 0%. The “% Eradication” value ([8]; twice daily 5 mg/kg) was 0% and the “% Eradication” value ([8]; twice daily 50 mg/kg) was 0%.
In the case of `O=[N+]([O-])c1cn2c(n1)OC[C@@H](OCc1ccc(C(F)(F)F)cc1)C2` [PA-636, 3S 4-(Trifluromethyl)benzyloxy-6-nitro-2H-3,4-dihydo-[2-1b]imidazopyran], the MIC [1] is reported as 0.5 µg/mL (≈ 1.46 µM), the “Average RLUs … in lungs” value [6] is reported as 5,790 RLUs and the inhibition at 25 µg/mL (Cryptosporidium parvum; 25 μg/mL) is reported as 14.5%. For the same compound, the inhibition at 50 µg/mL (Cryptosporidium parvum; 50 μg/mL) was 9.4%, the inhibition at 100 µg/mL (Cryptosporidium parvum; 100 μg/mL) was 21% and the inhibition at 200 µg/mL (Cryptosporidium parvum; 200 μg/mL) was 39%. The MIC [4] was 3.12 µg/mL (≈ 9.09 µM) and the “Average RLUs … (rMTB) in spleens” value [7] was 91,377 RLUs.
In the case of `CCCCc1ccc(CO[C@@H]2COc3nc([N+](=O)[O-])cn3C2)cc1` [PA-822], the MIC [1] is reported as 0.06 µg/mL (≈ 0.181 µM), the “% Survival” value (Helicobacter felis) is reported as 100% and the MIC [4] is reported as 12.5 µg/mL (≈ 37.7 µM). It also gave an MIC (Helicobacter pylori; [9]) of 25 µg/mL (≈ 75.4 µM), an MIC (Helicobacter pylori; [10]) of 0.2 µg/mL (≈ 0.604 µM) and an MIC (Helicobacter pylori; [11]) of 0.2 µg/mL (≈ 0.604 µM). For the same compound, the MIC (Helicobacter pylori; [12]) was 0.2 µg/mL (≈ 0.604 µM), the MIC (Helicobacter pylori; [13]) was 0.4 µg/mL (≈ 1.21 µM) and the MIC (Helicobacter pylori; [14]) was 6.25 µg/mL (≈ 18.9 µM). For the same compound, the MIC (Helicobacter pylori; [15]) was over 25 µg/mL, the “% Eradication” value ([8]; once daily 25 mg/kg) was 0% and the “% Eradication” value ([8]; twice daily 5 mg/kg) was 0%. The “% Eradication” value ([8]; twice daily 50 mg/kg) was 0%.
With `O=C(N[C@@H]1COc2nc([N+](=O)[O-])cn2C1)OCc1ccc(OC(F)(F)F)cc1` [PA-1343] the MIC [1] was 0.015 µg/mL (≈ 0.0373 µM), the “% Survival” value (Helicobacter felis) was 00% and the “Average RLUs … in lungs” value [6] was 606 RLUs. For the same compound, the MIC (Helicobacter pylori; 72 h, read-out: MIC against Helicobacter pylori, strain B40, Met-S, Clar-S (Table 5B)) was 0.8 µg/mL (≈ 1.99 µM), the MIC (Helicobacter pylori; 72 h, read-out: MIC against Helicobacter pylori, strain B76, Met-R, Clar-S (Table 5B)) was 12 µg/mL (≈ 29.8 µM) and the MIC (Helicobacter pylori; 72 h, read-out: MIC against Helicobacter pylori, strain C1649, Met-R, Clar-R (Table 5B)) was 12 µg/mL (≈ 29.8 µM). For the same compound, the MIC (Helicobacter pylori; 72 h, read-out: MIC against Helicobacter pylori, strain C11403, Met-S, Clar-R (Table 5B)) was 1.5 µg/mL (≈ 3.73 µM), the MIC (Helicobacter pylori; 72 h, read-out: MIC against Helicobacter pylori, strain C19765 (Table 5B)) was 12 µg/mL (≈ 29.8 µM) and the MIC (Helicobacter pylori; 72 h, read-out: MIC against Helicobacter pylori, strain RD26, Met-S, Clar-S (Table 5B)) was 3 µg/mL (≈ 7.46 µM). For the same compound, the MIC (Helicobacter pylori; 72 h, read-out: MIC against Helicobacter pylori, strain rd26, Met-S, Clar-S (Table 5B)) was 2 µg/mL (≈ 4.97 µM), the MIC (Helicobacter pylori; ATCC43504, 72 h, read-out: MIC against Helicobacter pylori, strain ATCC 43504, Met-R, Clar-S (Table 5B)) was 10 µg/mL (≈ 24.9 µM) and the MIC (Helicobacter pylori; ATCC43526, 72 h, read-out: MIC against Helicobacter pylori, strain ATCC 43526, Met-R, Clar-S (Table 5B)) was 12 µg/mL (≈ 29.8 µM). For the same compound, the MIC (Helicobacter pylori; ATCC43579, 72 h, read-out: MIC against Helicobacter pylori, strain ATCC 43579, Met-S, Clar-S (Table 5B)) was 1.5 µg/mL (≈ 3.73 µM), the MIC (Helicobacter pylori; ATCC43629, 72 h, read-out: MIC against Helicobacter pylori, strain ATCC 43629, Met-S, Clar-S (Table 5B)) was 3 µg/mL (≈ 7.46 µM) and the “Average RLUs … (rMTB) in spleens” value [7] was 51,928 RLUs.
